This is an account of results in US20220031708A1, “METHOD FOR TREATING IDIOPATHIC PULMONARY FIBROSIS” (NuMedii, Inc., priority 2019, published 2022).

Where two headings read alike, the source gives them in different places.

Experiment [1] relates to lung fibroblasts isolated from human IPF donor lungs. Nature of the experiment: Fibroblast-to-myofibroblast transition (FMT), aSMA induction by TGFb, IPF donor fibroblasts. As to conditions: 1.25 ng/mL TGFb; for IC50: Homo sapiens, Fibroblast, 72 h, read-out: LogM IC50 aSMA (converted); for LogM IC50 aSMA: 72 hours. The format is cell-based. The protocol:
(§1) Primary fibroblasts cultured from the lungs of patients with IPF (n=3) or healthy donors (n=3) were exposed to Chk1 inhibitors or control compounds to determine the effect of Chk1 inhibitors on fibroblast differentiation into myofibroblasts (i.e., fibroblast-to-myofibroblast transition [FMT]). […] Chk1 inhibitors were dosed in an 8-point concentration curve 1 hr prior to TGFb treatment. Alpha-SMA and DAPI staining were assessed after 72 hours using high content analysis. The ability of the Chk1 inhibitors to block fibroblast-to-myofibroblast differentiation was determined by quantifying percent inhibition (PIN) of aSMA induction. Cell viability was also measured to determine whether the compounds were cytotoxic.

In experiment [2] the test system is Primary fibroblasts cultured from the lungs of healthy donors. Nature of the experiment: Fibroblast-to-myofibroblast transition (FMT), aSMA induction by TGFb, healthy donor fibroblasts. The format is cell-based, human. The conditions noted are these: 1.25 ng/mL TGFb; for IC50: Homo sapiens, Fibroblast, 72 h, read-out: LogM IC50 aSMA (converted); for LogM IC50 aSMA: 72 hours. On the procedure: as §1

In experiment [3] the test system is mouse model of pulmonary fibrosis. Nature of the experiment: Bleomycin mouse model of pulmonary fibrosis: histopathology and collagen deposition. The format is in vivo, C57BL6 mice. As to conditions: for Collagen deposition (% pixel count) / Fiber Alignment / Fiber Count / Fiber Density: relative vs vehicle; for disease burden by collagen deposition, fiber count, fiber density and fiber alignment (Sirius red): FIG. 4A, FIG. 4B, Table 8; for histopathology scores (Ashcroft, Masson's Trichrome): PF-477736 10 or 20 mg/kg i.p., nintedanib 100 mg/kg orally, FIG. 3A. The protocol: To induce fibrosis, 6-8 week old C57BL6 mice were dosed with 3 mg/kg bleomycin hydrochloride in a volume of 50 μL per animal via intratracheal (i.t.) administration with a microsprayer. One week following administration of bleomycin, mice were treated with compound or vehicle once daily from day 7 to day 20. PF-477736 was administered at a dose of either 10 mg/kg (“med”) or 20 mg/kg (“high”) i.p. in a vehicle of […] sodium acetate buffer and 4% dextrose, pH 4. Nintedanib was administered orally at 100 mg/kg in a vehicle of 1% methylcellulose. n=10 mice per group.
At the end of the study, lungs were processed using standard histological methods for Masson's Trichrome staining and were assigned Ashcroft scores by a blinded pathologist.
Whole lung imaging was performed using a modified deep learning algorithm to calculate an average histogram (FIG. 3B) and empirical cumulative density function (ECDF, FIG. 3C) for each arm. The X axes represent severity of pathology, and the Y axes represent frequency (histograms) or cumulative frequency (ECDF).
Histological sections were also stained using Sirius red and assessed for collagen deposition (%), collagen fiber count, collagen fiber density, and collagen fiber alignment in a protocol modified from Bredfeldt et al. 2014, “Computational segmentation of collagen fibers from second-harmonic generation images of breast cancer.” Journal of biomedical optics 19.1.

Experiment [4] deals with Human lung fibroblasts from three donors. Briefly: FMT assay, Chk1 inhibitor combined with nintedanib or pirfenidone. Format: cell-based. As to conditions: nintedanib concentration curve, Chk1 inhibitor at pre-determined IC20; FIG. 7.
Description: Human lung fibroblasts from three donors were seeded in 96-well plates and treated with 1.25 ng/mL TGFb to induce differentiation to a myofibroblast phenotype (characterized by the induction of alpha smooth muscle actin—aSMA). A Chk1 inhibitor PF-477736, or standard-of-care compounds in IPF (nintedanib or pirfenidone) were dosed as indicated in an 8-point concentration curve 1 hr prior to TGFb treatment. Alpha-SMA and DAPI staining were assessed after 72 hours using high content analysis for percent inhibition of aSMA induction and % viable cells. CRC=concentration response curve. The first noted compound was dosed in an 8-point concentration curve, while the second noted compound was dosed at the pre-determined IC20 in this assay.
For each condition, percent inhibition (PIN) of aSMA induction was calculated (circles, and left y-axis), and the percent of viable cells was calculated (triangles, right y-axis).
For experiment [5], the system named is M1 macrophages differentiated from human monocytes. Briefly: M1 macrophage activation, CD80 flow cytometry after LPS/IFNg. Format: cell-based. The conditions noted are these: dosed 1 hour before LPS/IFNg, 3 days; FIG. 2A. On the procedure: (§2) Human monocytes were isolated from the peripheral blood of IPF patients, exposed to various doses of PF-477736 for 1 hour, and then differentiated into M1 macrophages by exposure to LPS/IFNg, or into M2 macrophages by exposure to IL-4, for 3 days. The cells were analyzed by flow cytometry for CD80 cell surface expression as marker of M1 differentiation, and for CD163 cell surface expression as marker of M2 differentiation. In addition, cell supernatants were tested in a Luminex-based assay for various cytokines and matrix metalloproteinases (MMPs).

Experiment [6] concerns M2 macrophages differentiated from human monocytes. Nature of the experiment: M2 macrophage activation, CD163 flow cytometry after IL-4. The format is cell-based. As to conditions: dosed 1 hour before IL-4, 3 days; FIG. 2B. The protocol:
as §2
For orientation: Flow cytometry measures light scatter and fluorescence of single cells or particles in a stream.

The test system of experiment [7] is macrophages exposed to LPS and IFNg. Nature of the experiment: Luminex-based assay of cytokines and MMPs in macrophage supernatants. The conditions noted are these: FIG. 2C. The format is cell-based, human. The protocol:
as §2

Setting [8] is: donor FB0303*, Healthy (aberrant response to nintedanib).
The mark [9] stands for this setting: 100 mg/kg orally once daily day 7 to day 20.
[10] abbreviates: 20 mg/kg i.p. once daily day 7 to day 20.
Setting [11] is: Multi-dose: mice from both the 10 mg/kg and the 20 mg/kg groups.

The IC50 is the concentration at which inhibition is half-maximal. On to `NC(=O)Nc1cc(-c2cccc(F)c2)sc1C(=O)N[C@H]1CCCNC1` [AZD-7762], for which the IC50 in experiment [1] (donor IPF06, IPF) is 794 nM; in experiment [1] (donor IPF07, IPF) it was 794 nM; in experiment [1] (donor IPF08, IPF), 501 nM; in experiment [2] (donor FB0054, Healthy), 1260 nM; in experiment [2] (donor FB2382, Healthy), 631 nM.

Turning to `COc1cc2nc(-c3cc(F)ccc3O)nc(N[C@@H]3CNC[C@H]3C(C)(C)O)c2cc1OC` [CCT-241533], the IC50 in experiment [1] (donor IPF06, IPF) was 631 nM; in experiment [1] (donor IPF07, IPF) it was 158 nM; in experiment [1] (donor IPF08, IPF), 316 nM; in experiment [2] (donor FB0054, Healthy), 398 nM; in experiment [2] (donor FB2382, Healthy), 501 nM.

With `N#Cc1cnc(Nc2cc(NC[C@H]3CNCCO3)c(C(F)(F)F)cn2)cn1` [CCT-245737], the IC50 in experiment [1] (donor IPF06, IPF) is 3160 nM; in experiment [1] (donor IPF07, IPF), 3160 nM; in experiment [1] (donor IPF08, IPF), 3160 nM; in experiment [2] (donor FB0054, Healthy) it was 3160 nM; in experiment [2] (setting [8]) it was 2510 nM; in experiment [2] (donor FB2382, Healthy), 3160 nM.

For `N[C@@H]1CCCN(c2c(Br)cnc3[nH]cc(NC(=O)C4CC4)c23)C1` [GDC-0575], the “LogM IC50 aSMA” value is listed as −5.7 LogM in experiment [1] (donor IPF06, IPF); −5.7 LogM in experiment [1] (donor IPF07, IPF); −5.8 LogM in experiment [1] (donor IPF08, IPF); −5.9 LogM in experiment [2] (donor FB0054, Healthy); −5.8 LogM in experiment [2] (setting [8]); −5.9 LogM in experiment [2] (donor FB2382, Healthy).

As for `Cn1cc(-c2cnn3c(N)c(Br)c([C@@H]4CCCNC4)nc23)cn1` [MK-8776], the IC50 in experiment [1] (donor IPF06, IPF) is 2000 nM; in experiment [1] (donor IPF07, IPF), 2000 nM; in experiment [1] (donor IPF08, IPF), 1580 nM; in experiment [2] (setting [8]) it was 398 nM; in experiment [2] (donor FB2382, Healthy), 3160 nM.

As to `COC(=O)c1ccc2c(c1)NC(=O)/C2=C(\Nc1ccc(N(C)C(=O)CN2CCN(C)CC2)cc1)c1ccccc1` [Nintedanib], in experiment [3] (setting [9]), the “Collagen deposition (% pixel count)” value is “+0.31 % pixel count”, the “Fiber Alignment” value was −0.03, the “Fiber Count” value is given as “+20” and the “Fiber Density” value is recorded as “+0.40”. Further, in experiment [3], the “disease burden by collagen deposition, fiber count, fiber density and fiber alignment (Sirius red)” value was “did not”; the “histopathology scores (Ashcroft, Masson's Trichrome)” value is recorded as “improved histopathology scores”. In experiment [4], the “concentration of nintedanib required for 50% inhibition of fibroblast to myofibroblast differentiation” value is “lower when co-administered with a Chk1 inhibitor”.

For the compound `COc1cccc(OCCCN)c1-c1cc(Nc2cnc(C#N)cn2)n[nH]1` [prexasertib], the IC50 in experiment [1] (donor IPF06, IPF) was 1000 nM; in experiment [1] (donor IPF07, IPF), 1000 nM; in experiment [1] (donor IPF08, IPF) it was 631 nM; in experiment [2] (donor FB0054, Healthy), 631 nM; in experiment [2] (donor FB2382, Healthy), 794 nM.

Regarding PF-477736, the “M1 macrophage activation (CD80 cell surface expression)” value in experiment [5] is “inhibits M1 macrophage activation in a dose-dependent manner”. For the same compound, in experiment [6], the “M2 macrophage activation (CD163 cell surface expression)” value is recorded as “inhibits M2 macrophage activation in a dose-dependent manner”. For the same compound, in experiment [7], the “levels of representative cytokines and matrix metalloproteinases in supernatants” value was “lower levels of representative cytokines and matrix metalloproteinases”. Moreover, the “Collagen deposition (% pixel count)” value in experiment [3] (10 mg/kg i.p. once daily day 7 to day 20) was −1.27 % pixel count. Besides, in experiment [3] (setting [10]), the “Collagen deposition (% pixel count)” value is on record as −1.64 % pixel count, the “Fiber Alignment” value is listed as 0.08, the “Fiber Count” value is −66.3 and the “Fiber Density” value is recorded as −0.66. In addition, in experiment [3], the “disease burden by collagen deposition, fiber count, fiber density and fiber alignment (Sirius red)” value is reported as “reduced disease burden by all of these parameters in a dose-dependent manner”; the “histopathology scores (Ashcroft, Masson's Trichrome)” value is given as “improved histopathology scores”. Further, in experiment [3] (setting [11]), the “Collagen deposition (% pixel count)” value is recorded as −1.63 % pixel count, the “Fiber Alignment” value came to 0.08, the “Fiber Count” value was −67.7 and the “Fiber Density” value is −0.69. Further, the “pathology severity, whole lung imaging (histogram, ECDF)” value in experiment [3] (deep learning algorithm, FIG. 3B, 3C) is given as “greater reduction in pathology severity compared to nintedanib”.
